“Also recorded” adds a separate entry of the source. Where a name gives a salt, the structure may show the parent alone. Read-outs that look alike come from different tables or passages of the source.
What was measured:
[1] = human; cited from earlier work
[2] = system: HCMV in RPS14 knockdown cells; format: cell-based, human cytomegalovirus (HCMV); settings: contact-inhibited RPS14 knockdown cells; luciferase first and second cycle, pp65 at 72 hpi; dihydrochloride hydrate
[3] = Cell viability (MTT) assay; settings: human, non-infected HFFs
[4] = system: HSV-1 (luciferase HSV1-KOS/Dlux/oriS); assay: HSV-1 luciferase assay in HFFs; format: cell-based, herpes simplex virus 1; settings: nM concentrations
Text: (§1) Cell culture, virus infection and anti-viral assays.

malaria = settings: 17 patients; 40 mg IM x 6 daily doses; cited from earlier work
in vivo = assay: in vivo
Method: Pharmacokinetics and CMV inhibition in mice. […] The dosing solution was prepared in saline with a dosing volume of 10 mL/kg. Blood and tissue samples including liver, lung and spleen were collected at 0, 0.083, 0.25, 0.5, 0.75, 1, 2, 3, 4, 7, 24, 30, 48, 72 and 96 hr. […] Pharmacokinetic parameters (Cmax, Tmax, AUC and t1/2) were calculated with a non-compartmental approach using the Pharsight WinNonLin software (Ver. 6.4). The experimental procedures were approved by the Animal Care and Use Committee of Division of Veterinary Resources, NIH.

HCMV Towne = HCMV Towne plaque reduction assay in HFFs; format: cell-based, human cytomegalovirus (HCMV)
Text: as §1

RPS14 = RPS14 (Homo sapiens, UniProt P62263); assay: Confocal microscopy of RPS14 localization; format: cell-based; settings: 24 hpi; infected cells; emetine 75 nM
Method: Confocal microscopy. […] Cells were fixed with 3.7% paraformaldehyde for 20 min at room temperature, permeabilized with ice cold methanol for 10 min at −20° C. and blocked with 5% bovine serum albumin in 0.5% Tween-20 for 20 min at room temperature. Cells were incubated with primary antibodies at 4° C. overnight, washed and incubated with fluorescently labeled secondary antibodies for 2 h at 37° C. Fluorescence microscopy was performed by using a confocal laser scanning microscope (Nikon EZ Cl confocal microscope). All images were captured at 60× magnification and processed under identical conditions with constant parameters (including scan speed and excitation and emission wavelengths) using Nikon EZ Cl software.

HCMV entry = assay: Virus entry immunofluorescence assay for pp65; format: cell-based; settings: emetine 75 nM, GCV 10 μM, CpG 2006 10 μM; added 24 h prior to infection; dihydrochloride hydrate
Method: Immunofluorescence. […] Compounds were diluted in serum-free medium and added to HFFs seeded on chamber slides 24 h prior to infection. After infection and treatment, cells were fixed, permeabilized, and air-dried. Cells were then incubated with mouse monoclonal anti-pp65 antibody at 37° C. in humidified chambers for 1 h, washed three times with 0.1% Tween 20 in PBS (PBST), incubated with rhodamine conjugated anti-mouse IgG (Sigma Chemical Co) at 37° C. in humidified chambers for 1 h, and washed with PBST (0.1% Tween 20). A drop of mount oil containing DAPI (4,6-diamidino-2-phenylindole) (Santa Cruz) was added to the slides before visualization with a Nikon Eclipse E-800 fluorescence microscope.

MDM2-IE2 interaction = assay: Co-immunoprecipitation of MDM2 and IE2 in transfected HEK293 cells; format: cell-based; settings: HEK293 cells transfected with IE1/2; emetine 75 nM or GCV 5 μM, 4 h
Method: Transient transfections. HEK-293 cells seeded into 10 cm petri dishes were transfected with HCMV plasmid encoding IE1 and IE2 (pRL45) plasmid, 1 μg/dish, using Lipofectamine 2000 in serum free medium. After 6 h, 10% FBS containing media was added along with 10 μM of MG132. […] Cells were then harvested to prepare lysates for IP.
Co-immunoprecipitation (IP) and immunoblotting. Non-infected, infected or emetine-treated HFFs were treated with MG132 (10 μM) for 12 h. Cells were harvested after 24 hpi and lysed with IP buffer containing 150 mM NaCl, 50 mM Tris pH 7.5, 2 mM EDTA, 0.5% TritonX-100 and 0.5% NP-40-40. 1 mg of lysate was precleared with bead slurry for 30 min. The precleared lysates were incubated with anti-MDM2 (2 μg) antibody overnight. The antibody complexes were isolated using protein A/G beads (Santa Cruz), washed three times with 50% IP buffer. The immunoprecipitate—protein A/G beads were boiled in SDS sample buffer, and the supernatant was analyzed on SDS-PAGE gels after immunoblotting as described previously. […] Reverse IPs were performed by pulling down the precleared lysates with either anti-p53 antibody or anti-RPS14 antibody and detected with MDM2. […] In other experiments, transfected or treated HEK293 cell lysates were pulled-down with anti-IE2 antibody and detected with anti-MDM2 antibody and vice-versa for reverse IP.

protein synthesis = settings: at concentration that inhibit CMV replication in vitro; cited from earlier work

**Q.** Which results are given for `CC[C@H]1CN2CCc3cc(OC)c(OC)cc3[C@@H]2C[C@@H]1C[C@H]1NCCc2cc(OC)c(OC)cc21` [emetine, emetine dihydrochloride hydrate]?
**A.** half-life [1]: 24 to 48 h; HCMV inhibition in RPS14 knockdown cells [2]: unable to inhibit HCMV; also recorded: loss of HCMV inhibition; CC50 at 72 h [3]: 8 µM; inhibition of HSV-1 [4]: inhibited; treatment of malaria (malaria): successful treatment; Cmax (in vivo; male, BALB/c, mouse, in vivo, 0.1 mg/kg): 1.4 ng/mL; half-life (in vivo; male, BALB/c, mouse, in vivo, ip, 0.1 mg/kg, half-life, single intraperitoneal administration 0.1 mg/kg, mice): 32 h; half-life (in vivo; male, BALB/c, mouse, in vivo, po, 1 mg/kg, half-life, single oral administration 1 mg/kg, male BALB/c mice): 32 h; half-life (in vivo; single oral administration 1 mg/kg, male BALB/c mice, dihydrochloride hydrate, 1 mg/kg): 24 h; inhibition of HCMV by plaque reduction assay (HCMV Towne): further confirmed; reduction in the number and size of plaques (HCMV Towne; 2 million cells/plate (p<0.001) as compared to 0.5 million cells/plate, emetine 75 nM): 30 fold; RPS14 localization (RPS14): induced RPS14 translocation into the nucleus; inhibition of viral entry (HCMV entry): neither emetine nor GCV inhibited viral entry; also recorded: does not inhibit; interaction of MDM2 and IE2 (MDM2-IE2 interaction): significantly decreased; inhibition of protein synthesis (protein synthesis): no inhibition of protein synthesis

Source: patent US12208093B2 (THE JOHNS HOPKINS UNIVERSITY, priority 2016, dated 2025)
